Biological target: T1, intestinal bile acid transportation system (Na^+ -dependent) in brush border membrane vesicles of the ileum (Oryctolagus cuniculus, UniProt Q28727)
T1 construct: Brush border membrane vesicles were prepared from the intestinal cells of the small intestine; from tissue; host or cells: brush border membrane vesicles from the terminal 7/10 of the small intestine (ileum) of male New Zealand rabbits
T1 sequence (Q28727 1-347): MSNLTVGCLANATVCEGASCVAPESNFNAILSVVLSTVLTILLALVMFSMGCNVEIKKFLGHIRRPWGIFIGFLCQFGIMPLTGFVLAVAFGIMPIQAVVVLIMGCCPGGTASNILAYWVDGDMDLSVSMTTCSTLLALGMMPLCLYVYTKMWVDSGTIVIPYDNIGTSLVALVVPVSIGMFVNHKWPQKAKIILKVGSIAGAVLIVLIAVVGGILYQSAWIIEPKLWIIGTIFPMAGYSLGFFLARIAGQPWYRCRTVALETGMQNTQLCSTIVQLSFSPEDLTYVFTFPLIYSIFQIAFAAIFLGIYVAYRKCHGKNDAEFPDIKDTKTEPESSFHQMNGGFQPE
Assay: Inhibition of [^3 H]-taurocholate uptake in brush border membrane vesicles of the ileum of rabbits
Format: biochemical, rabbit
Settings: 50 μM taurocholate, usually 1 minute; for IC50Na TCDC / IC50Na -substance: quotient of IC50Na of reference taurochenodeoxycholate (TCDC) and IC50Na of test substance, Na^+ -dependent transportation content (Na-T-B minus K-T-B); for IC50 -TCDC / IC50 -substance: quotient of IC50 of reference taurochenodeoxycholate (TCDC) and IC50 of test substance, [^3 H]-taurocholate uptake
Description: The compounds according to the invention were tested biologically by determination of the inhibition of [^3 H]-taurocholate uptake in brush border membrane vesicles of the ileum of rabbits. The inhibition test was carried out as follows:
1. Preparation of Brush Border Membrane Vesicles from the Ileum of Rabbits
Brush border membrane vesicles were prepared from the intestinal cells of the small intestine by the so-called Mg^2+ precipitation method. Male New Zealand rabbits (2 to 2.5 kg bodyweight) were sacrificed by intravenous injection of 0.5 ml of an aqueous solution of 2.5 mg Tetracain HCl, 100 T61^R and 25 mg of mebezonium iodide. The small intestine was rinsed with ice-cold physiological saline solution. The terminal […] of the small intestine (measured in the oral-rectal direction, i.e. the terminal ileum, which contains the active Na^+ -dependent bile acid transportation system) was used for preparation of the brush border membrane vesicles. The intestines were frozen in plastic bags under nitrogen at -80° C. For preparation of the membrane vesicles, the frozen intestines were […] at 30° C. in a water-bath. The mucosa was scraped off and suspended in 60 ml of ice-cold 12 mM Tris/HCl buffer (pH 7.1)/300 mM mannitol, 5 mM EGTA/10 mg/l of phenylmethylsulfonylfluoride/1 mg/l of trypsin inhibitor for soya beans (32 U/mg)/0.5 mg/l of trypsin inhibitor from bovine lung (193 U/mg)/5 mg/l of bacitracin. After dilution to 300 ml with ice-cold distilled water, the mixture was homogenized with an Ultraturrax (18-rod, IKA Werk Staufen, FRG) for 3 minutes at 75 % of the maximum power, while cooling with ice. After addition of 3 ml of 1M MgCl2 solution (final concentration 10 mM), the mixture was left to stand at 0° C. for exactly 1 minute. By addition of Mg^2+, the cell membranes aggregate and precipitate, with the exception of the brush border membranes. After centrifugation at 3000×g (5000 revolutions per minute, SS-34 rotor) for 15 minutes, the precipitate is discarded and the supernatant, which contains the brush border membranes, was centrifuged at […] (15000 revolutions per minute, SS-34 rotor) for 30 minutes. The supernatant was discarded and the precipitate was rehomogenized in 60 ml of 12 mM tris/HCl buffer (pH 7.1)/60 mM mannitol, 5 mM EGTA using a Potter Elvejhem homogenizer (Braun, Melsungen, 900 revolutions per minute, 10 strokes). After addition of 0.1 ml of 1M MgCl2 solution and an incubation time of 15 minutes at 0° C., the mixture was centrifuged again at 3000×g for 15 minutes. The supernatatant was then centrifuged again at 46000×g (15000 revolutions per minute, SS-34 rotor) for 30 minutes. The precipitate was taken up in 30 ml of 10 mM Tris/Hepes buffer (pH 7.4)/300 mM mannitol and resuspended homogeneously by 20 strokes in a Potter Elvejhem homogenizer at 1000 revolutions per minute. After centrifugation at 48000×g (20000 revolutions per minute, SS-34 rotor) for 30 minutes, the precipitate was taken up in 0.5 to 2 ml of Tris/Hepes buffer (pH 7.4)/280 mM mannitol (final concentration 20 mg/ml) and resuspended with the aid of a tuberculin syringe with a 27 gauge needle. The vesicles were either used for transportation studies immediately after preparation or stored at -196° C. in 4 mg portions in liquid nitrogen.
2. Inhibition of the Na^+ -dependent [^3 H]-taurocholate Uptake in the Brush Border Membrane Vesicles of the Ileum
The uptake of substrates into the brush border membrane vesicles described above was determined by means of the so-called membrane filtration technique. 10 μl of the vesicle suspension (100 μg of protein) were pipetted as drops onto the wall of a polystyrene incubation tube (11×70 mm) which contained the incubation medium with the corresponding ligands (90 μl). […]

Row | Compound | IC50Na TCDC / IC50Na -substance | IC50 -TCDC / IC50 -substance
1 | C[C@H](Cc1nn[nH]n1)[C@H]1CC[C@H]2[C@@H]3[C@H](O)C[C@@H]4C[C@H](O)CC[C@]4(C)[C@H]3C[C@H](O)[C@]12C [Example 4] | 0.38 | 0.28
2 | CC(CCCc1nn[nH]n1)C1CCC2C3C(O)CC4CC(O)CCC4(C)C3CC(O)C12C (centres unmarked) [Example 14] | 1.35 | 1.20
3 | C[C@H](CCCc1nn[nH]n1)[C@H]1CC[C@H]2[C@@H]3[C@H](O)C[C@@H]4C[C@@H](OCCO)CC[C@]4(C)[C@H]3C[C@H](O)[C@]12C [Example 16] | 0.25 | 0.26
4 | C[C@H](CCC(=O)N[C@H]1CC[C@@]2(C)[C@@H](C1)C[C@@H](O)[C@@H]1[C@@H]2C[C@H](O)[C@]2(C)[C@@H]([C@H](C)CCC(=O)Nc3nn[nH]n3)CC[C@@H]12)[C@H]1CC[C@H]2[C@@H]3[C@H](O)C[C@@H]4C[C@H](O)CC[C@]4(C)[C@H]3C[C@H](O)[C@]12C [Example 22] | 1.35 | 1.66
5 | C[C@H](CCC(=O)Nc1nn[nH]n1)[C@H]1CC[C@H]2[C@@H]3[C@H](O)C[C@@H]4C[C@H](O)CC[C@]4(C)[C@H]3C[C@H](O)[C@]12C [Example 24] | 1.27 | 0.97
6 | C[C@H](CCC(=O)NCCO[C@H]1CC[C@@]2(C)[C@@H](C1)C[C@@H](O)[C@@H]1[C@@H]2C[C@H](O)[C@]2(C)[C@@H]([C@H](C)CCCc3nn[nH]n3)CC[C@@H]12)[C@H]1CC[C@H]2[C@@H]3[C@@H](O)C[C@@H]4C[C@H](O)CC[C@]4(C)[C@H]3CC[C@]12C [Example 27] | 0.25 | 0.26
7 | C[C@H](CCC(=O)NCc1nn[nH]n1)[C@H]1CC[C@H]2[C@@H]3[C@H](O)C[C@@H]4C[C@H](O)CC[C@]4(C)[C@H]3C[C@H](O)[C@]12C [Example 29] | 0.48 | 0.46
